From article PMC8333062, “Chemical tools for epichaperome-mediated interactome dysfunctions of the central nervous system” (Nature Communications, 2021)
Where “and” joins values, the source holds several entries; their conditions need not be identical. Equal entries are not always repeated. Where two headings read alike, the source gives them in different places.

How the values were obtained:
MDA-MB-468 tumors [1] = experiment: In vivo biodistribution of [131I]-PU-HZ151 (gamma counting); design: species or system mouse; key to Biodistribution, Lung / Biodistribution, Heart / Biodistribution, Muscle / Biodistribution, Blood / Biodistribution, Bone / Biodistribution, Brain / Biodistribution, tumor: percent injected dose per gram tissue (%ID/g); Biodistribution, Tumor - S / Biodistribution, Tumor - L: unit: %ID/g; settings: mean
Procedure: Activity in the syringe before and after administration was assayed in a dose calibrator (CRC-15R; Capintec) to determine by difference the actual activity administered to each animal. Animals were euthanized by CO2 asphyxiation at different time points post-administration of the tracer and organs including tumors were harvested and weighed. […] Count data were background and decay-corrected to the time of injection, and the percent injected dose per gram (%ID g^−1) for each tissue sample was calculated by using a measured calibration factor to convert count rate to activity and the activity was normalized to the activity injected and the mass of sample assayed to yield the activity concentration in %ID g^−1.

MDA-MB-468 tumors [2] = experiment: Radioactivity metabolite characterization (radio-HPLC of tumor extracts); assay type: in vivo, mouse; settings: 24 h post iv
Procedure: MDA-MB-468 tumor xenografts were established on the forelimbs of female athymic nude mice (Hsd:Athymic Nude-Foxn1nu; Envigo; 6 weeks old; RRID:MGI:5652489) by subcutaneous (s.c.) injection of 5 × 10^6 cells in a 200 µl cell suspension of a 1:1 v/v mixture of PBS with reconstituted basement membrane (BD Matrigel^TM, Collaborative Biomedical Products Inc., Bedford, MA). […] After 24 h, tumors were harvested and weighed prior to homogenization in acetonitrile/H2O (3:7) using Bullet Blender Tissue Homogenizer (Next Advance Inc.). Tumor-associated radioactivity was extracted in methylene chloride, and the organic layer was separated and dried under vacuum. Samples were reconstituted in 10% CH3CN in 0.1% HCOOH in water were analyzed using Shimadzu (Columbia, Maryland USA) HPLC system equipped with binary pumps LC-20AB, UV detector and sodium iodide radioactivity detector connected to flow-ram (Lab Logic, Tampa, FL) and 250 × 4.6 mm Phenomenex Luna (Torrance, CA) C-18 HPLC column (10 µM, 100 A).

[3] = Pharmacokinetic studies in mice (LC-MS/MS); assay type: in vivo, B6D2F1 mice; settings: male, B6D2F1, mouse, iv, i.v. 10 mg kg^−1
Procedure: Blood and brain tissue were collected following euthanasia at the scheduled time points of 5, 30 min, 1, 4, and 8 h following iv dosing and of 30 min, 1, 4, and 8 h following po dosing. Brain samples were immediately flash frozen in liquid nitrogen following collection and stored at −80 °C until analysis. Blood samples were collected into an EDTA tube by heart puncture and centrifuged at 17,000×g for 5 min at 4 °C to separate the plasma and immediately frozen on dry ice and stored at −80 °C until analysis. […] This was homogenized, extracted with methylene chloride, and evaporated on a GeneVac. […] Drug concentration (μM) in the brain was then modified to account for an average water space of 0.8 mL g^−1.

[4] = target: HSP90 pools in JNPL3 (AD transgenic) mouse brain lysate; experiment: Fluorescence polarization (FP) competitive binding, cy3B-GM; settings: read-out: FP relative affinity
patient-derived GSCs = experiment: GSC viability (CellTiter-Glo, 48 h); assay type: cell-based, human; design: %Survival of cells at day 0 (ATP levels): concentration or dose not given beside the values; %Survival (ATP levels): reference not given here; settings: for %Survival (ATP levels): 1 μM, 48 h, individual replicates, listed as PU-H71; for %Survival of cells at day 0 (ATP levels): mean
[5] = cited from earlier work
MDA-MB-468 cells = experiment: Cell viability, ATP levels 72 h; assay type: cell-based, human; settings: control MDA-MB-468 of Fig. 6f; mean

CC(C)(C)CNCCn1c(Sc2cc3c(cc2[131I])OCO3)nc2c(N)ncnc21 [[131I]-PU-HZ151]
Biodistribution, Blood (MDA-MB-468 tumors [1]; 1 h): 0.732
Biodistribution, Bone (MDA-MB-468 tumors [1]; 1 h): 0.55
Biodistribution, Brain (MDA-MB-468 tumors [1]; 1 h): 0.397
Biodistribution, Heart (MDA-MB-468 tumors [1]; 1 h): 0.402
Biodistribution, Lung (MDA-MB-468 tumors [1]; 1 h): 0.666
Biodistribution, Muscle (MDA-MB-468 tumors [1]; 1 h): 0.29
Biodistribution, tumor (MDA-MB-468 tumors [1]; 1 h): 1.745
Biodistribution, Blood (MDA-MB-468 tumors [1]; 4 h): 0.1086
Biodistribution, Bone (MDA-MB-468 tumors [1]; 4 h): 0.07
Biodistribution, Brain (MDA-MB-468 tumors [1]; 4 h): 0.015
Biodistribution, Heart (MDA-MB-468 tumors [1]; 4 h): 0.063
Biodistribution, Lung (MDA-MB-468 tumors [1]; 4 h): 0.296
Biodistribution, Muscle (MDA-MB-468 tumors [1]; 4 h): 0.034
Biodistribution, Tumor - L (MDA-MB-468 tumors [1]; 4 h): 0.5106
Biodistribution, Tumor - S (MDA-MB-468 tumors [1]; 4 h): 0.5895
Biodistribution, Blood (MDA-MB-468 tumors [1]; 6 h): 0.08349
Biodistribution, Bone (MDA-MB-468 tumors [1]; 6 h): 0.05
Biodistribution, Brain (MDA-MB-468 tumors [1]; 6 h): 0.01
Biodistribution, Heart (MDA-MB-468 tumors [1]; 6 h): 0.045
Biodistribution, Lung (MDA-MB-468 tumors [1]; 6 h): 0.237
Biodistribution, Muscle (MDA-MB-468 tumors [1]; 6 h): 0.044
Biodistribution, Tumor - L (MDA-MB-468 tumors [1]; 6 h): 0.4547
Biodistribution, Tumor - S (MDA-MB-468 tumors [1]; 6 h): 0.5075
Biodistribution, tumor (MDA-MB-468 tumors [1]; 6 h): 0.5792
Biodistribution, Blood (MDA-MB-468 tumors [1]; 8 h): 0.05883
Biodistribution, Bone (MDA-MB-468 tumors [1]; 8 h): 0.033
Biodistribution, Brain (MDA-MB-468 tumors [1]; 8 h): 0.005
Biodistribution, Heart (MDA-MB-468 tumors [1]; 8 h): 0.027
Biodistribution, Lung (MDA-MB-468 tumors [1]; 8 h): 0.129
Biodistribution, Muscle (MDA-MB-468 tumors [1]; 8 h): 0.023
Biodistribution, Tumor - L (MDA-MB-468 tumors [1]; 8 h): 0.3061
Biodistribution, Tumor - S (MDA-MB-468 tumors [1]; 8 h): 0.2819
Biodistribution, Blood (MDA-MB-468 tumors [1]; 12 h): 0.02368
Biodistribution, Bone (MDA-MB-468 tumors [1]; 12 h): 0.012
Biodistribution, Brain (MDA-MB-468 tumors [1]; 12 h): 0.002
Biodistribution, Heart (MDA-MB-468 tumors [1]; 12 h): 0.009
Biodistribution, Lung (MDA-MB-468 tumors [1]; 12 h): 0.04
Biodistribution, Muscle (MDA-MB-468 tumors [1]; 12 h): 0.006
Biodistribution, Tumor - L (MDA-MB-468 tumors [1]; 12 h): 0.2552
Biodistribution, Tumor - S (MDA-MB-468 tumors [1]; 12 h): 0.2535
Biodistribution, Blood (MDA-MB-468 tumors [1]; first column group, 24 h): 0.002331
Biodistribution, Bone (MDA-MB-468 tumors [1]; first column group, 24 h): 0.016
Biodistribution, Brain (MDA-MB-468 tumors [1]; first column group, 24 h): 0.001
Biodistribution, Heart (MDA-MB-468 tumors [1]; first column group, 24 h): 0.003
Biodistribution, Lung (MDA-MB-468 tumors [1]; first column group, 24 h): 0.012
Biodistribution, Muscle (MDA-MB-468 tumors [1]; first column group, 24 h): 0.002
Biodistribution, Tumor - L (MDA-MB-468 tumors [1]; first column group, 24 h): 0.2045
Biodistribution, Tumor - S (MDA-MB-468 tumors [1]; first column group, 24 h): 0.1544
Biodistribution, Bone (MDA-MB-468 tumors [1]; first column group, 48 h): 0.004
Biodistribution, Brain (MDA-MB-468 tumors [1]; first column group, 48 h): 0
Biodistribution, Heart (MDA-MB-468 tumors [1]; first column group, 48 h): 0.002
Biodistribution, Lung (MDA-MB-468 tumors [1]; first column group, 48 h): 0.004
Biodistribution, Muscle (MDA-MB-468 tumors [1]; first column group, 48 h): 0.001
Biodistribution, Tumor - L (MDA-MB-468 tumors [1]; first column group, 48 h): 0.08346
Biodistribution, Tumor - S (MDA-MB-468 tumors [1]; first column group, 48 h): 0.08811
Biodistribution, Blood (MDA-MB-468 tumors [1]; second column group, 24 h): 0.0041
Biodistribution, Bone (MDA-MB-468 tumors [1]; second column group, 24 h): 0.012
Biodistribution, Brain (MDA-MB-468 tumors [1]; second column group, 24 h): 0.00319
Biodistribution, Heart (MDA-MB-468 tumors [1]; second column group, 24 h): 0.0138
Biodistribution, Lung (MDA-MB-468 tumors [1]; second column group, 24 h): 0.061
Biodistribution, Muscle (MDA-MB-468 tumors [1]; second column group, 24 h): 0.002
Biodistribution, tumor (MDA-MB-468 tumors [1]; second column group, 24 h): 0.1057
Biodistribution, Blood (MDA-MB-468 tumors [1]; second column group, 48 h): 0.00228
Biodistribution, Bone (MDA-MB-468 tumors [1]; second column group, 48 h): 0.0182
Biodistribution, Brain (MDA-MB-468 tumors [1]; second column group, 48 h): 0.00219
Biodistribution, Heart (MDA-MB-468 tumors [1]; second column group, 48 h): 0.00513
Biodistribution, Lung (MDA-MB-468 tumors [1]; second column group, 48 h): 0.0472
Biodistribution, Muscle (MDA-MB-468 tumors [1]; second column group, 48 h): 0.018
Biodistribution, tumor (MDA-MB-468 tumors [1]; second column group, 48 h): 0.03983
species in tumor extract (MDA-MB-468 tumors [2]): only [^131I]-PU-HZ151 contributed to tumor-associated radioactivity

CC(C)NCCCn1c(Sc2cc3c(cc2I)OCO3)nc2c(N)ncnc21 [Compound 1, reference compound]
AUC ([3]; brain, read-out: brain exposure, AUC): 890 nM·h
AUC ([3]; plasma, read-out: plasma exposure, AUC): 3470 nM·h
PAMPA_BBB (PAMPA-BBB permeability; Supplementary Table 6): 7.3±0.5
Papp at 16 h, 50 μM (PAMPA-BBB permeability; pig, PAMPA, pH 7.4): 73 nm/s
EC50 [4]: 0.011 µM
%Survival (ATP levels) (patient-derived GSCs; GSC #5): 41.476% and 5.798% and 38.7842% and 30.5485%
%Survival (ATP levels) (patient-derived GSCs; GSC #6): -6.57% and -27.89% and 1.15% and -9.59%
%Survival (ATP levels) (patient-derived GSCs; GSC #7): -25.19% and -34.61% and -39.02% and -55.29%
%Survival (ATP levels) (patient-derived GSCs; GSC #8): -77.2% and -77.91% and -68.52% and -70.63%
%Survival (ATP levels) (patient-derived GSCs; GSC #9): -61.441% and -69.079% and -26.869% and -37.387% and -60.84%
%Survival (ATP levels) (patient-derived GSCs; GSC #10): -33.379% and -62.081% and -10.588% and -35.788%
%Survival (ATP levels) (patient-derived GSCs; GSC #13): 34.82% and 22.05% and 9.61% and -0.49%
%Survival (ATP levels) (patient-derived GSCs; GSC #15): -13.07% and -44.27% and -29% and -48.76%
%Survival (ATP levels) (patient-derived GSCs; GSC #18): -1.04% and -53.07% and -13.29% and -52.53% and 13.24% and -19.8%
%Survival (ATP levels) (patient-derived GSCs; GSC #19): -8.867% and -20.5667% and 16.158% and 1.691%
%Survival (ATP levels) (patient-derived GSCs; GSC #24): 12.98% and -42.57% and -22.24% and -59.3% and -24.55% and -39.04%
%Survival (ATP levels) (patient-derived GSCs; GSC #30): -64.892% and -76.295% and -41.317% and -38.952%
%Survival (ATP levels) (patient-derived GSCs; GSC #31): 52.42% and 26.79% and -5.03% and -0.87% and 70.08% and 45.37%
%Survival of cells at day 0 (ATP levels) (patient-derived GSCs; GSC# 5): 29.1%
%Survival of cells at day 0 (ATP levels) (patient-derived GSCs; GSC# 6): -10.7%
%Survival of cells at day 0 (ATP levels) (patient-derived GSCs; GSC# 8): -73.6%
%Survival of cells at day 0 (ATP levels) (patient-derived GSCs; GSC# 9): -51.1%
%Survival of cells at day 0 (ATP levels) (patient-derived GSCs; GSC# 10): -35.4%
%Survival of cells at day 0 (ATP levels) (patient-derived GSCs; GSC# 13): 16.5%
%Survival of cells at day 0 (ATP levels) (patient-derived GSCs; GSC# 15): -33.8%
%Survival of cells at day 0 (ATP levels) (patient-derived GSCs; GSC# 17): 16.9%
%Survival of cells at day 0 (ATP levels) (patient-derived GSCs; GSC# 18): -21.1%
%Survival of cells at day 0 (ATP levels) (patient-derived GSCs; GSC# 19): -2.9%
%Survival of cells at day 0 (ATP levels) (patient-derived GSCs; GSC# 24): -29.1%
%Survival of cells at day 0 (ATP levels) (patient-derived GSCs; GSC# 30): -55.4%
%Survival of cells at day 0 (ATP levels) (patient-derived GSCs; GSC# 31): 31.5%
SUV average, Brain ([5]; 0.5 h, mean n=14): 0.17 SUV
SUV average, Lung ([5]; 0.5 h, mean n=14): 0.66 SUV
SUV average, Muscle ([5]; 0.5 h, mean n=14): 0.59 SUV
SUV average, Brain ([5]; 3 h, mean n=24): 0.1104 SUV
SUV average, Lung ([5]; 3 h, mean n=24): 0.37 SUV
SUV average, Muscle ([5]; 3 h, mean n=24): 0.43 SUV
SUV average, Brain ([5]; 24 h, mean n=24): 0.0956 SUV
SUV average, Lung ([5]; 24 h, mean n=24): 0.18 SUV
SUV average, Muscle ([5]; 24 h, mean n=24): 0.18 SUV
%Survival of cells at day 0 (ATP levels) (MDA-MB-468 cells): -92.5%
